Results published in PubChem BioAssay AID248 (DTP/NCI, 2004).
Several values for one entry are separate records, joined by “and”; a condition that tells them apart may be missing. Equal values may be shown once. Inconclusive results and toxic doses are left out.

Tested on: L1210 leukemia ip in BDF1 mice, survival T/C
Experiment: NCI In Vivo Anticancer Drug Screen. Data for tumor model L1210 Leukemia (intraperitoneal) in B6D2F1 (BDF1) mice
Settings: endpoint: mean survival time, higher = longer survival
How it was run: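 Each compound was tested against a transplantable tumor grown in mice. The endpoint was survival, with treated animals benchmarked against vehicle controls as a simple ratio.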

[1] = dose: 100.0 mg/kg/injection, schedule: Q04DX003 (ip), vehicle: Klucel (hydroxypropylcellulose) (HPC)
[2] = dose: 200.0 mg/kg/injection, schedule: Q04DX003 (ip), vehicle: Klucel (hydroxypropylcellulose) (HPC)
[3] = dose: 400.0 mg/kg/injection, schedule: Q04DX003 (ip), vehicle: Klucel (hydroxypropylcellulose) (HPC)
[4] = dose: 50.0 mg/kg/injection, schedule: Q01DX001 (ip), vehicle: carboxymethylcellulose (CMC)
[5] = dose: 100.0 mg/kg/injection, schedule: Q01DX001 (ip), vehicle: carboxymethylcellulose (CMC)
[6] = dose: 200.0 mg/kg/injection, schedule: Q01DX001 (ip), vehicle: carboxymethylcellulose (CMC)
[7] = dose: 400.0 mg/kg/injection, schedule: Q01DX001 (ip), vehicle: carboxymethylcellulose (CMC)
[8] = dose: 100.0 mg/kg/injection, schedule: Q04DX003 (ip), vehicle: saline with Tween-80
[9] = dose: 100.0 mg/kg/injection, schedule: Q04DX003 (ip), vehicle: saline
[10] = dose: 25.0 mg/kg/injection, schedule: Q01DX009 (ip), vehicle: saline
[11] = dose: 50.0 mg/kg/injection, schedule: Q01DX009 (ip), vehicle: saline
[12] = dose: 100.0 mg/kg/injection, schedule: Q04DX002 (ip), vehicle: saline
[13] = dose: 100.0 mg/kg/injection, schedule: Q01DX009 (ip), vehicle: saline with Tween-80
[14] = dose: 200.0 mg/kg/injection, schedule: Q01DX009 (ip), vehicle: saline with Tween-80
[15] = dose: 200.0 mg/kg/injection, schedule: Q04DX003 (ip), vehicle: saline with Tween-80
[16] = dose: 400.0 mg/kg/injection, schedule: Q01DX009 (ip), vehicle: saline with Tween-80
[17] = dose: 400.0 mg/kg/injection, schedule: Q04DX003 (ip), vehicle: saline with Tween-80
[18] = dose: 100.0 mg/kg/injection, schedule: Q01DX001 (ip), vehicle: saline
[19] = dose: 200.0 mg/kg/injection, schedule: Q01DX001 (ip), vehicle: saline
[20] = dose: 400.0 mg/kg/injection, schedule: Q01DX001 (ip), vehicle: saline
[21] = dose: 50.0 mg/kg/injection, schedule: Q01DX001 (ip), vehicle: saline

## CC(=O)N1CSCC1C(=O)O (stereo not given)
[1]
  T/C: 89 % of control
[2]
  T/C: 94 % of control
[3]
  T/C: 91 % of control

## O=C1OC(c2ccccc2)=N/C1=C\c1cccnc1
dose: 50.0 mg/kg/injection, schedule: Q04DX002 (ip), vehicle: Klucel (hydroxypropylcellulose) (HPC)
  T/C: 90 % of control
dose: 100.0 mg/kg/injection, schedule: Q04DX002 (ip), vehicle: Klucel (hydroxypropylcellulose) (HPC)
  T/C: 96 % of control
dose: 200.0 mg/kg/injection, schedule: Q04DX002 (ip), vehicle: Klucel (hydroxypropylcellulose) (HPC)
  T/C: 86 % of control
dose: 400.0 mg/kg/injection, schedule: Q04DX002 (ip), vehicle: Klucel (hydroxypropylcellulose) (HPC)
  T/C: 86 % of control

## O=C(Nc1cccc(Cl)c1)Nc1ccc(Cl)c(C(F)(F)F)c1
[4]
  T/C: 94 % of control
[5]
  T/C: 105 % of control
[6]
  T/C: 100 % of control
[7]
  T/C: 102 % of control

## CC1=NC2(CCCCC2)C[N+]1(Cc1ccccc1)Cc1ccccc1
[8]
  T/C: 94 % of control

## CC(C)C(=Nc1ccc(Cl)c(Cl)c1)N(C)C
dose: 44.0 mg/kg/injection, schedule: Q01DX Z (ip), vehicle: methylcellulose (MC)
  T/C: 95 % of control
dose: 66.0 mg/kg/injection, schedule: Q01DX Z (ip), vehicle: methylcellulose (MC)
  T/C: 102 % of control

## Cc1cccc(C)c1NC(=O)N(CCO)C1CCCCC1
[9]
  T/C: 102 % of control
dose: 200.0 mg/kg/injection, schedule: Q04DX003 (ip), vehicle: saline
  T/C: 112 % of control
dose: 400.0 mg/kg/injection, schedule: Q04DX003 (ip), vehicle: saline
  T/C: 104 % of control

## CC(=O)OCCCC[N+](=O)[O-]
[5]
  T/C: 98 % of control
[6]
  T/C: 98 % of control
[7]
  T/C: 98 % of control

## C#CCSC(=N)N
[10]
  T/C: 101 % of control
[11]
  T/C: 93 % of control
[9]
  T/C: 103 % of control

## N#CC(NC(N)=O)(c1ccccc1)c1ccccc1
[4]
  T/C: 91 % of control
[5]
  T/C: 107 % of control
[6]
  T/C: 96 % of control
[7]
  T/C: 91 % of control

## COc1cc(/C=N/NC(=O)C(=O)N/N=C/c2cc(OC)c(OC)c(OC)c2)cc(OC)c1OC
dose: 75.0 mg/kg/injection, schedule: Q01DX001 (ip), vehicle: other
  T/C: 94 % of control
dose: 150.0 mg/kg/injection, schedule: Q01DX001 (ip), vehicle: other
  T/C: 90 % of control
dose: 300.0 mg/kg/injection, schedule: Q01DX001 (ip), vehicle: other
  T/C: 89 % of control

## S=C(n1ccnc1)n1ccnc1
[10]
  T/C: 100 % of control
dose: 25.0 mg/kg/injection, schedule: Q04DX003 (ip), vehicle: saline
  T/C: 106 % of control
[11]
  T/C: 95 % of control
dose: 50.0 mg/kg/injection, schedule: Q04DX003 (ip), vehicle: saline
  T/C: 105 % of control
dose: 100.0 mg/kg/injection, schedule: Q01DX009 (ip), vehicle: saline
  T/C: 103 % of control
[9]
  T/C: 103 % of control
dose: 150.0 mg/kg/injection, schedule: Q01DX009 (ip), vehicle: saline
  T/C: 94 % of control
dose: 225.0 mg/kg/injection, schedule: Q01DX009 (ip), vehicle: saline
  T/C: 92 % of control

## NC(=O)NCCC(=O)O
[12]
  T/C: 115 % of control
dose: 200.0 mg/kg/injection, schedule: Q04DX002 (ip), vehicle: saline
  T/C: 112 % of control
dose: 400.0 mg/kg/injection, schedule: Q04DX002 (ip), vehicle: saline
  T/C: 101 % of control

## COc1ccc(CCNC(=O)CCN2C(=O)c3ccccc3C2=O)cc1OC
[13]
  T/C: 115 % of control
[8]
  T/C: 97 % of control
[14]
  T/C: 115 % of control
[15]
  T/C: 100 % of control
[16]
  T/C: 113 % of control
[17]
  T/C: 112 % of control

## OCC1OC(n2cnc3c(SCc4ccccc4)ncnc32)C(O)C1O (stereo not given)
dose: 38.5 mg/kg/injection, schedule: Q01DX009 (ip), vehicle: saline
  T/C: 102 % of control
dose: 58.0 mg/kg/injection, schedule: Q01DX009 (ip), vehicle: carboxymethylcellulose (CMC)
  T/C: 111 % of control
dose: 58.0 mg/kg/injection, schedule: Q01DX009 (ip), vehicle: saline
  T/C: 124 % of control
dose: 88.0 mg/kg/injection, schedule: Q01DX009 (ip), vehicle: carboxymethylcellulose (CMC)
  T/C: 124 % of control
dose: 88.0 mg/kg/injection, schedule: Q01DX009 (ip), vehicle: saline
  T/C: 152 % of control
dose: 132.0 mg/kg/injection, schedule: Q01DX009 (ip), vehicle: carboxymethylcellulose (CMC)
  T/C: 113 % of control
dose: 132.0 mg/kg/injection, schedule: Q01DX009 (ip), vehicle: saline
  T/C: 152 % of control
dose: 200.0 mg/kg/injection, schedule: Q01DX009 (ip), vehicle: carboxymethylcellulose (CMC)
  T/C: 105 % of control

## COc1cc(C=NCCN=Cc2cc(OC)c(OC)c(OC)c2)cc(OC)c1OC
dose: 50.0 mg/kg/injection, schedule: Q01DX009 (ip), vehicle: saline with Tween-80
  T/C: 94 % of control
dose: 50.0 mg/kg/injection, schedule: Q04DX003 (ip), vehicle: saline with Tween-80
  T/C: 94 % of control
[13]
  T/C: 100 % of control
[8]
  T/C: 98 % of control
[15]
  T/C: 105 % of control

## CCCCN(C)C(=S)S[Te](SC(=S)N(C)CCCC)(SC(=S)N(C)CCCC)SC(=S)N(C)CCCC
[18]
  T/C: 95 % of control
[19]
  T/C: 90 % of control
[20]
  T/C: 93 % of control
dose: 800.0 mg/kg/injection, schedule: Q01DX001 (ip), vehicle: saline
  T/C: 106 % of control
dose: 1600.0 mg/kg/injection, schedule: Q01DX001 (ip), vehicle: saline
  T/C: 104 % of control

## N=C(N)S/C=C(/F)C(F)(F)CBr
[21]
  T/C: 95 % of control
[18]
  T/C: 101 % of control
[19]
  T/C: 113 % of control
[20]
  T/C: 101 % of control

## CCCCCCCCCCCCCCCCCC[n+]1ccc(C(N)=O)cc1
[9]
  T/C: 91 % of control

## COc1cc2c(cc1OC)C(Cc1cc(OC)c(OC)cc1[N+](=O)[O-])=NCC2
[18]
  T/C: 100 % of control
[19]
  T/C: 98 % of control
[20]
  T/C: 94 % of control

## O=[N+]([O-])C=C([SH2+])[SH2+].O=[N+]([O-])C=C([SH2+])[SH2+].[Pt+2].c1ccc(C[P+](c2ccccc2)(c2ccccc2)c2ccccc2)cc1
[21]
  T/C: 95 % of control
[18]
  T/C: 110 % of control
[19]
  T/C: 96 % of control

## Cc1ccc(S(=O)(=O)N(C)c2cc(Cl)c(C(N)=O)c(Cl)c2)cc1
dose: 100.0 mg/kg/injection, schedule: Q01DX001 (ip), vehicle: Klucel (hydroxypropylcellulose) (HPC)
  T/C: 93 % of control
dose: 100.0 mg/kg/injection, schedule: Q01DX009 (ip), vehicle: saline sonified
  T/C: 97 % of control
[13]
  T/C: 98 % of control
[8]
  T/C: 105 % of control
dose: 200.0 mg/kg/injection, schedule: Q01DX001 (ip), vehicle: Klucel (hydroxypropylcellulose) (HPC)
  T/C: 95 % of control
dose: 200.0 mg/kg/injection, schedule: Q01DX009 (ip), vehicle: saline sonified
  T/C: 105 % of control
[14]
  T/C: 90 % of control
[15]
  T/C: 101 % of control
dose: 400.0 mg/kg/injection, schedule: Q01DX001 (ip), vehicle: Klucel (hydroxypropylcellulose) (HPC)
  T/C: 100 % of control
dose: 400.0 mg/kg/injection, schedule: Q01DX009 (ip), vehicle: saline sonified
  T/C: 93 % of control
[16]
  T/C: 92 % of control
[17]
  T/C: 92 % of control

## CCOC(=O)C/C(C)=N/N=C(\CCOC)COC
[5]
  T/C: 87 % of control
[6]
  T/C: 103 % of control
[7]
  T/C: 103 % of control

## O=C(NC/C(Cl)=C/Cl)Oc1cccc2ccccc12
dose: 75.0 mg/kg/injection, schedule: Q01DX009 (ip), vehicle: Klucel (hydroxypropylcellulose) (HPC)
  T/C: 107 % of control
dose: 150.0 mg/kg/injection, schedule: Q01DX009 (ip), vehicle: Klucel (hydroxypropylcellulose) (HPC)
  T/C: 104 % of control
dose: 300.0 mg/kg/injection, schedule: Q01DX009 (ip), vehicle: Klucel (hydroxypropylcellulose) (HPC)
  T/C: 98 % of control

## O=[N+]([O-])c1cc(Br)cc2c1nc(NCCO)c1ccccc12
[1]
  T/C: 103 % of control
[2]
  T/C: 119 % of control
[3]
  T/C: 101 % of control

## CN(CCCl)C1c2ccccc2-c2ccccc21
dose: 25.0 mg/kg/injection, schedule: Q04DX002 (ip), vehicle: saline
  T/C: 100 % of control
dose: 50.0 mg/kg/injection, schedule: Q04DX002 (ip), vehicle: saline
  T/C: 100 % of control
[12]
  T/C: 106 % of control and 117 % of control
